Structures are written as SMILES. Where only a bound is given, the exact number is not on record here.

For the assay, the target named is T1, human PAH with the R408W mutation (Homo sapiens, UniProt P00439, R408W).
T1 construct: expressed in transfected cells
T1 sequence (P00439 1-452 R408W): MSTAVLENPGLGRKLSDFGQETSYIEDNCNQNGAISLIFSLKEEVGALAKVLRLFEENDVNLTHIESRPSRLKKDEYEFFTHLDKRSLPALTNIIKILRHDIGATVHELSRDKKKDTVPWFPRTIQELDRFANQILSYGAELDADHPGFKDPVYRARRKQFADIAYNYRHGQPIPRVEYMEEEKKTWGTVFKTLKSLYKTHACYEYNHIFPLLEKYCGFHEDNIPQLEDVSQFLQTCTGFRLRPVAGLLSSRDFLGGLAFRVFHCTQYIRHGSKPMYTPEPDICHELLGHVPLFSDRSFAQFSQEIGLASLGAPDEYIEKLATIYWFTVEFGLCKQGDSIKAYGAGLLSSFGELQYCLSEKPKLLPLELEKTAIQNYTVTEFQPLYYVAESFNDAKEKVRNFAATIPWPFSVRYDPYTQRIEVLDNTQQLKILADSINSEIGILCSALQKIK
Put plainly: Cell Based Phenylalanine Flux Assay.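 Note: after compound treatment, cells received sepiapterin plus isotope-labelled Phenylalanine for 4 hours, then labelled Tyrosine in the medium was quantified, 10-point 2-fold dilution series run in duplicate.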 The following applies: A375 cells expressing human PAH R408W; 24 hrs compound incubation; 13C-Tyrosine by LC-MS; average where tested multiple times; read-out: AC50.

As usually defined, the AC50 is the concentration at which the activity in the assay is half-maximal. With `FC(F)(F)Oc1cccn2nc([C@@H]3c4nc[nH]c4CCN3c3nnc(C4CC4)o3)cc12` [Example 2314, (S)-2-cyclopropyl-5-(4-(4-(trifluoromethoxy)pyrazolo[1,5-a]pyridin-2-yl)-1,4,6,7-tetrahydro-5H-imidazo[4,5-c]pyridin-5-yl)-1,3,4-oxadiazole], the AC50 was less than 0.5 µM.
`FC(F)(F)Oc1cccn2nc([C@@H]3c4nc[nH]c4CCN3c3ncc(C(F)(F)F)cn3)cc12` [Example 2316, (S)-4-(4-(trifluoromethoxy)pyrazolo[1,5-a]pyridin-2-yl)-5-(5-(trifluoromethyl)pyrimidin-2-yl)-4,5,6,7-tetrahydro-1H-imidazo[4,5-c]pyridine]: the AC50 is less than 0.5 µM.
Under `FC(F)Oc1cccn2nc([C@H]3c4nc[nH]c4CCN3c3cnccn3)cc12` [Example 2318, (R)-4-(4-(difluoromethoxy)pyrazolo[1,5-a]pyridin-2-yl)-5-(pyrazin-2-yl)-4,5,6,7-tetrahydro-1H-imidazo[4,5-c]pyridine] stands greater than 5 µM; under `CC(C)c1nnc(N2CCc3[nH]cnc3[C@@H]2c2cc3c(F)cccn3n2)o1` [Example 2322, (R)-2-(4-(4-fluoropyrazolo[1,5-a]pyridin-2-yl)-1,4,6,7-tetrahydro-5H-imidazo[4,5-c]pyridin-5-yl)-5-isopropyl-1,3,4-oxadiazole], greater than 5 µM.
As to `CC(C)c1nnc(N2CCc3[nH]cnc3[C@@H]2c2cc3c(Cl)cccn3n2)o1` [Example 2324, (R)-2-(4-(4-chloropyrazolo[1,5-a]pyridin-2-yl)-1,4,6,7-tetrahydro-5H-imidazo[4,5-c]pyridin-5-yl)-5-isopropyl-1,3,4-oxadiazole], the AC50 was greater than 5 µM.
`CC(C)c1nnc(N2CCc3[nH]cnc3[C@H]2c2cc3c(Cl)cccn3n2)o1` [Example 2325, (S)-2-(4-(4-chloropyrazolo[1,5-a]pyridin-2-yl)-1,4,6,7-tetrahydro-5H-imidazo[4,5-c]pyridin-5-yl)-5-isopropyl-1,3,4-oxadiazole]: the AC50 was less than 0.5 µM.
For `CC(F)(F)c1nnc(N2CCc3[nH]cnc3[C@H]2c2cc3cccc(Cl)n3n2)o1` [Example 2327, (S)-2-(4-(7-chloropyrazolo[1,5-a]pyridin-2-yl)-1,4,6,7-tetrahydro-5H-imidazo[4,5-c]pyridin-5-yl)-5-(1,1-difluoroethyl)-1,3,4-oxadiazole], the AC50 fell in the range of 1 to 5 µM.
For the compound `Cc1cccc2cc([C@@H]3c4nc[nH]c4CCN3c3nnc(C(C)(F)F)o3)nn12` [Example 2329, (S)-2-(1,1-difluoroethyl)-5-(4-(7-methylpyrazolo[1,5-a]pyridin-2-yl)-1,4,6,7-tetrahydro-5H-imidazo[4,5-c]pyridin-5-yl)-1,3,4-oxadiazole], the AC50 lay in the range of 1 to 5 µM.
With `Cc1ncccc1-c1nnc(N2CCc3[nH]cnc3[C@@H]2c2cc3cccc(Cl)n3n2)o1` [Example 2331, (R)-2-(4-(7-chloropyrazolo[1,5-a]pyridin-2-yl)-1,4,6,7-tetrahydro-5H-imidazo[4,5-c]pyridin-5-yl)-5-(2-methylpyridin-3-yl)-1,3,4-oxadiazole] the figure was greater than 5 µM; with `Cc1ncccc1-c1nnc(N2CCc3[nH]cnc3[C@H]2c2cc3cccc(C)n3n2)o1` [Example 2332, (S)-2-(4-(7-methylpyrazolo[1,5-a]pyridin-2-yl)-1,4,6,7-tetrahydro-5H-imidazo[4,5-c]pyridin-5-yl)-5-(2-methylpyridin-3-yl)-1,3,4-oxadiazole], 0.5 to 1 µM; with `Cc1ncccc1-c1nnc(N2CCc3[nH]cnc3[C@@H]2c2cc3cccc(C)n3n2)o1` [Example 2333, (R)-2-(4-(7-methylpyrazolo[1,5-a]pyridin-2-yl)-1,4,6,7-tetrahydro-5H-imidazo[4,5-c]pyridin-5-yl)-5-(2-methylpyridin-3-yl)-1,3,4-oxadiazole], greater than 5 µM.
Consider `CC(C)c1cccn2nc([C@@H]3c4nc[nH]c4CCN3c3nnc(-c4cccnc4F)o3)cc12` [Example 2335, (S)-2-(2-fluoropyridin-3-yl)-5-(4-(4-isopropylpyrazolo[1,5-a]pyridin-2-yl)-1,4,6,7-tetrahydro-5H-imidazo[4,5-c]pyridin-5-yl)-1,3,4-oxadiazole], for which the AC50 lay within 0.5 to 1 µM.
`Cc1cccnc1-c1nnc(N2CCc3[nH]cnc3[C@H]2c2cc3cccc(C(F)(F)F)n3n2)o1` [Example 2336, (S)-2-(3-methylpyridin-2-yl)-5-(4-(7-(trifluoromethyl)pyrazolo[1,5-a]pyridin-2-yl)-1,4,6,7-tetrahydro-5H-imidazo[4,5-c]pyridin-5-yl)-1,3,4-oxadiazole]: the AC50 lay in the range of 0.5 to 1 µM.
`Fc1cccnc1-c1nnc(N2CCc3[nH]cnc3[C@H]2c2cc3ccccn3n2)o1` [Example 2338, (S)-2-(3-fluoropyridin-2-yl)-5-(4-(pyrazolo[1,5-a]pyridin-2-yl)-1,4,6,7-tetrahydro-5H-imidazo[4,5-c]pyridin-5-yl)-1,3,4-oxadiazole]: the AC50 fell in the range of 0.5 to 1 µM.
Regarding `Fc1cccnc1-c1nnc(N2CCc3[nH]cnc3[C@@H]2c2cc3ccccn3n2)o1` [Example 2339, (R)-2-(3-fluoropyridin-2-yl)-5-(4-(pyrazolo[1,5-a]pyridin-2-yl)-1,4,6,7-tetrahydro-5H-imidazo[4,5-c]pyridin-5-yl)-1,3,4-oxadiazole], the AC50 is greater than 5 µM.
Under `Cc1cccn2nc([C@H]3c4nc[nH]c4CCN3c3nnc(-c4ncccc4F)o3)cc12` [Example 2340, (R)-2-(3-fluoropyridin-2-yl)-5-(4-(4-methylpyrazolo[1,5-a]pyridin-2-yl)-1,4,6,7-tetrahydro-5H-imidazo[4,5-c]pyridin-5-yl)-1,3,4-oxadiazole] stands greater than 5 µM; under `Cc1cccn2nc([C@@H]3c4nc[nH]c4CCN3c3nnc(-c4ncccc4F)o3)cc12` [Example 2341, (S)-2-(3-fluoropyridin-2-yl)-5-(4-(4-methylpyrazolo[1,5-a]pyridin-2-yl)-1,4,6,7-tetrahydro-5H-imidazo[4,5-c]pyridin-5-yl)-1,3,4-oxadiazole], 0.5 to 1 µM.
Take `Cc1cccc(-c2nnc(N3CCc4[nH]cnc4[C@H]3c3cc4c(C)cccn4n3)o2)n1` [Example 2345, (S)-2-(4-(4-methylpyrazolo[1,5-a]pyridin-2-yl)-1,4,6,7-tetrahydro-5H-imidazo[4,5-c]pyridin-5-yl)-5-(6-methylpyridin-2-yl)-1,3,4-oxadiazole]: the AC50 fell in the range of 0.5 to 1 µM.
For the compound `Cc1cccc(-c2nnc(N3CCc4[nH]cnc4[C@H]3c3cc4c(C(F)F)cccn4n3)o2)n1` [Example 2347, (S)-2-(4-(4-(difluoromethyl)pyrazolo[1,5-a]pyridin-2-yl)-1,4,6,7-tetrahydro-5H-imidazo[4,5-c]pyridin-5-yl)-5-(6-methylpyridin-2-yl)-1,3,4-oxadiazole], the concentration at half-maximal activity (AC50) lay within 0.5 to 1 µM.
Regarding `FC(F)(F)Oc1cccn2nc([C@@H]3c4nc[nH]c4CCN3c3ccc(C(F)(F)F)cn3)cc12` [Example 2348, (S)-4-(4-(trifluoromethoxy)pyrazolo[1,5-a]pyridin-2-yl)-5-(5-(trifluoromethyl)pyridin-2-yl)-4,5,6,7-tetrahydro-1H-imidazo[4,5-c]pyridine], the AC50 was in the range of 0.5 to 1 µM.
For `Fc1ncccc1-c1nnc(N2CCc3[nH]cnc3[C@H]2c2cc3c(Cl)cccn3n2)o1` [Example 2350, (S)-2-(4-(4-chloropyrazolo[1,5-a]pyridin-2-yl)-1,4,6,7-tetrahydro-5H-imidazo[4,5-c]pyridin-5-yl)-5-(2-fluoropyridin-3-yl)-1,3,4-oxadiazole], the AC50 fell in the range of 0.5 to 1 µM.
Consider `CC(C)c1cccn2nc([C@H]3c4nc[nH]c4CCN3c3nnc(-c4ncccc4F)o3)cc12` [Example 2354, (R)-2-(3-fluoropyridin-2-yl)-5-(4-(4-isopropylpyrazolo[1,5-a]pyridin-2-yl)-1,4,6,7-tetrahydro-5H-imidazo[4,5-c]pyridin-5-yl)-1,3,4-oxadiazole], for which the AC50 is greater than 5 µM.
`CC(C)c1cccn2nc([C@@H]3c4nc[nH]c4CCN3c3nnc(-c4ncccc4F)o3)cc12` [Example 2355, (S)-2-(3-fluoropyridin-2-yl)-5-(4-(4-isopropylpyrazolo[1,5-a]pyridin-2-yl)-1,4,6,7-tetrahydro-5H-imidazo[4,5-c]pyridin-5-yl)-1,3,4-oxadiazole]: the AC50 lay in the range of 0.5 to 1 µM.
As for `Cc1cccc(-c2nnc(N3CCc4[nH]cnc4[C@H]3c3cc4c(C(F)(F)F)cccn4n3)o2)n1` [Example 2357, (S)-2-(6-methylpyridin-2-yl)-5-(4-(4-(trifluoromethyl)pyrazolo[1,5-a]pyridin-2-yl)-1,4,6,7-tetrahydro-5H-imidazo[4,5-c]pyridin-5-yl)-1,3,4-oxadiazole], the AC50 lay within 0.5 to 1 µM.
As for `Cc1cccc(-c2nnc(N3CCc4[nH]cnc4[C@@H]3c3cc4c(C5CC5)cccn4n3)o2)n1` [Example 2358, (R)-2-(4-(4-cyclopropylpyrazolo[1,5-a]pyridin-2-yl)-1,4,6,7-tetrahydro-5H-imidazo[4,5-c]pyridin-5-yl)-5-(6-methylpyridin-2-yl)-1,3,4-oxadiazole], the half-maximal activity concentration (AC50) is greater than 5 µM.
Under `Cc1cccc(-c2nnc(N3CCc4[nH]cnc4[C@H]3c3cc4c(C5CC5)cccn4n3)o2)n1` [Example 2359, (S)-2-(4-(4-cyclopropylpyrazolo[1,5-a]pyridin-2-yl)-1,4,6,7-tetrahydro-5H-imidazo[4,5-c]pyridin-5-yl)-5-(6-methylpyridin-2-yl)-1,3,4-oxadiazole] stands 0.5 to 1 µM.

The record behind these values is patent US20230365592A1 (Agios Pharmaceuticals, Inc., priority 2022, published 2023).
